Patent US20230278972A1, “SUBSTITUTED HALOALKYL SULFONANILIDE HERBICIDES” (FMC Corporation, priority 2020, published 2023)

What was measured:
Type in all cases: in vivo
[1] = system: Ryegrass, Italian (Italian ryegrass, Lolium multiflorum); experiment: Test A1 postemergence, Ryegrass, Italian; details: Postemergence
Text: (§1) Seeds of plant species selected from, blackgrass (Alopecurus myosuroides), corn (Zea mays), Foxtail, Giant (giant foxtail, Setaria faberi), goosegrass (Eleusine indica), kochia (Bassia scoparia), Oat, Wild (wild oat, Avena fatua), Pigweed, Palmer (palmer amaranth, palmer pigweed, Amaranthus palmeri), ragweed (common ragweed, Ambrosia artemisiifolia), Ryegrass, Italian (Italian ryegrass, Lolium multiflorum), soybean (Glycine max), and wheat (Triticum aestivum) were planted into a blend of loam soil and sand and treated preemergence with a directed soil spray using test chemicals formulated in a non-phytotoxic solvent mixture which included a surfactant. At the same time, plants selected from these crop and weed species and also galium (catchweed bedstraw, Galium aparine) and horseweed (Erigeron canadensis) were planted in pots containing the same blend of loam soil and sand and treated with postemergence applications of test chemicals formulated in the same manner. Plants ranged in height from 2 to 10 cm and were in the one- to two-leaf stage for the postemergence treatment. […] A dash (-) response means no test result.

[2] = system: blackgrass (Alopecurus myosuroides); experiment: Test A1 preemergence, blackgrass
Text: as §1

[3] = system: Foxtail, Giant (giant foxtail, Setaria faberi); experiment: Test A1 postemergence, Foxtail, Giant; details: Postemergence
Text: as §1

[4] = system: ragweed (common ragweed, Ambrosia artemisiifolia); experiment: Test A1 preemergence, ragweed
Text: as §1

corn (Zea mays) [5] = experiment: Test A1 postemergence, corn; details: Postemergence
Text: as §1

soybean (Glycine max) [6] = experiment: Test A1 preemergence, soybean
Text: as §1

[7] = system: wheat (Triticum aestivum); experiment: Test A1 preemergence, wheat
Text: as §1

[8] = system: barnyardgrass (Echinochloa crus-galli); experiment: Test B1 flooded paddy test, barnyardgrass; details: 250 g ai/ha, Flood, applied to paddy water, 2-leaf stage, visually evaluated after 10 to 14 days
Text: (§2) A dash (-) response means no test result.

[9] = system: horseweed (Erigeron canadensis); experiment: Test A1 postemergence, horseweed; details: Postemergence
Text: as §1

[10] = system: Oat, Wild (wild oat, Avena fatua); experiment: Test A1 preemergence, Oat, Wild
Text: as §1

soybean (Glycine max) [11] = experiment: Test A1 postemergence, soybean; details: Postemergence
Text: as §1

[12] = system: Pigweed, Palmer (palmer amaranth, palmer pigweed, Amaranthus palmeri); experiment: Test A1 preemergence, Pigweed, Palmer
Text: as §1

[13] = system: Foxtail, Giant (giant foxtail, Setaria faberi); experiment: Test A1 preemergence, Foxtail, Giant
Text: as §1

[14] = system: wheat (Triticum aestivum); experiment: Test A1 postemergence, wheat; details: Postemergence
Text: as §1

kochia (Bassia scoparia) [15] = experiment: Test A1 preemergence, kochia
Text: as §1

[16] = system: Pigweed, Palmer (palmer amaranth, palmer pigweed, Amaranthus palmeri); experiment: Test A1 postemergence, Pigweed, Palmer; details: Postemergence
Text: as §1

[17] = system: Oat, Wild (wild oat, Avena fatua); experiment: Test A1 postemergence, Oat, Wild; details: Postemergence
Text: as §1

[18] = system: goosegrass (Eleusine indica); experiment: Test A1 postemergence, goosegrass; details: Postemergence
Text: as §1

[19] = system: ragweed (common ragweed, Ambrosia artemisiifolia); experiment: Test A1 postemergence, ragweed; details: Postemergence
Text: as §1

kochia (Bassia scoparia) [20] = experiment: Test A1 postemergence, kochia; details: Postemergence
Text: as §1

corn (Zea mays) [21] = experiment: Test A1 preemergence, corn
Text: as §1

[22] = system: galium (catchweed bedstraw, Galium aparine); experiment: Test A1 postemergence, galium; details: Postemergence
Text: as §1

[23] = system: goosegrass (Eleusine indica); experiment: Test A1 preemergence, goosegrass
Text: as §1

[24] = system: Ryegrass, Italian (Italian ryegrass, Lolium multiflorum); experiment: Test A1 preemergence, Ryegrass, Italian
Text: as §1

rice (Oryza sativa) = experiment: Test B1 flooded paddy test, rice; details: 250 g ai/ha, Flood, applied to paddy water, 2-leaf stage, visually evaluated after 10 to 14 days
Text: as §2

[25] = system: blackgrass (Alopecurus myosuroides); experiment: Test A1 postemergence, blackgrass; details: Postemergence, 0 to 100 scale (0 no effect, 100 complete control)
Text: as §1

[26] = system: ducksalad (Heteranthera limosa); experiment: Test B1 flooded paddy test, ducksalad; details: 250 g ai/ha, Flood, applied to paddy water, 2-leaf stage, visually evaluated after 10 to 14 days
Text: as §2

[27] = 31 g ai/ha, 0 to 100 scale (0 no effect, 100 complete control), 10 days
[28] = 31 g ai/ha, 0 to 100 scale (0 no effect, 100 complete control)
[29] = 125 g ai/ha, 0 to 100 scale, 0 no effect, 100 complete control

Compound: Cc1cc(C)c(C2=NOC3CCCCCC23)cc1NS(=O)(=O)C(F)(F)F (stereo not drawn) [Compound 292]
- Plant response rating, Ryegrass, Italian [1, 27]: 0
- Plant response rating, Ryegrass, Italian ([1]; 125 g ai/ha, 0 to 100 scale): 30
- Plant response rating, Blackgrass [2, 28]: 0
- Plant response rating, Blackgrass [2, 29]: 30
- Plant response rating, Foxtail, Giant [3, 27]: 0
- Plant response rating, Foxtail, Giant ([3]; 125 g ai/ha, 0 to 100 scale): 30
- Plant response rating, Ragweed [4, 28]: 10
- Plant response rating, Ragweed [4, 29]: 80
- Plant response rating, Corn (corn (Zea mays) [5]; [27]): 0
- Plant response rating, Corn (corn (Zea mays) [5]; 125 g ai/ha, 0 to 100 scale): 0
- Plant response rating, Soybean (soybean (Glycine max) [6]; [28]): 0
- Plant response rating, Soybean (soybean (Glycine max) [6]; [29]): 40
- Plant response rating, Wheat [7, 28]: 20
- Plant response rating, Wheat [7, 29]: 90
- Plant response rating, Barnyardgrass (0 to 100 scale, 0 is no effect, 100 is complete control) [8]: 0
- Plant response rating, Horseweed [9, 27]: 0
- Plant response rating, Horseweed ([9]; 125 g ai/ha, 0 to 100 scale): 30
- Plant response rating, Oat, Wild [10, 28]: 0
- Plant response rating, Oat, Wild [10, 29]: 50
- Plant response rating, Soybean (soybean (Glycine max) [11]; [27]): 20
- Plant response rating, Soybean (soybean (Glycine max) [11]; 125 g ai/ha, 0 to 100 scale): 80
- Plant response rating, Pigweed, Palmer [12, 28]: 60
- Plant response rating, Pigweed, Palmer [12, 29]: 60
- Plant response rating, Foxtail, Giant [13, 28]: 50
- Plant response rating, Foxtail, Giant [13, 29]: 100
- Plant response rating, Wheat [14, 27]: 0
- Plant response rating, Wheat ([14]; 125 g ai/ha, 0 to 100 scale): 70
- Plant response rating, Kochia (kochia (Bassia scoparia) [15]; [28]): 30
- Plant response rating, Kochia (kochia (Bassia scoparia) [15]; [29]): 80
- Plant response rating, Pigweed, Palmer [16, 27]: 0
- Plant response rating, Pigweed, Palmer ([16]; 125 g ai/ha, 0 to 100 scale): 30
- Plant response rating, Oat, Wild [17, 27]: 10
- Plant response rating, Oat, Wild ([17]; 125 g ai/ha, 0 to 100 scale): 30
- Plant response rating, Goosegrass [18, 27]: 0
- Plant response rating, Goosegrass ([18]; 125 g ai/ha, 0 to 100 scale): 80
- Plant response rating, Ragweed [19, 27]: 20
- Plant response rating, Ragweed ([19]; 125 g ai/ha, 0 to 100 scale): 40
- Plant response rating, Kochia (kochia (Bassia scoparia) [20]; [27]): 30
- Plant response rating, Kochia (kochia (Bassia scoparia) [20]; 125 g ai/ha, 0 to 100 scale): 50
- Plant response rating, Corn (corn (Zea mays) [21]; [28]): 0
- Plant response rating, Corn (corn (Zea mays) [21]; [29]): 40
- Plant response rating, Galium [22, 27]: 80
- Plant response rating, Galium ([22]; 125 g ai/ha, 0 to 100 scale): 80
- Plant response rating, Goosegrass [23, 28]: 80
- Plant response rating, Goosegrass [23, 29]: 100
- Plant response rating, Ryegrass, Italian [24, 28]: 60
- Plant response rating, Ryegrass, Italian [24, 29]: 100
- Plant response rating, Rice (0 to 100 scale, 0 is no effect, 100 is complete control) (rice (Oryza sativa)): 0
- Plant response rating, Blackgrass ([25]; 31 g ai/ha, 10 days): 0
- Plant response rating, Blackgrass ([25]; 125 g ai/ha): 0
- Plant response rating, Ducksalad (0 to 100 scale, 0 is no effect, 100 is complete control) [26]: 95
